Measurements reported in ChEMBL document CHEMBL3627601, “Poly(amidoamine) dendrimers show carbonic anhydrase inhibitory activity against α-, β-, γ- and η-class enzymes” (Bioorg Med Chem, 2015).

Assays:
[1] = Inhibition of Trypanosoma cruzi alpha-carbonic anhydrase preincubated for 15 mins by stopped-flow CO2 hydration assay
[2] = Inhibition of Vibrio cholerae alpha-carbonic anhydrase preincubated for 15 mins by stopped-flow CO2 hydration assay
[3] = Inhibition of Leishmania donovani chagasi beta-carbonic anhydrase preincubated for 15 mins by stopped-flow CO2 hydration assay
[4] = Inhibition of Porphyromonas gingivalis beta-carbonic anhydrase preincubated for 15 mins by stopped-flow CO2 hydration assay
[5] = Inhibition of Cryptococcus neoformans beta-carbonic anhydrase preincubated for 15 mins by stopped-flow CO2 hydration assay
[6] = Inhibition of Candida glabrata beta-carbonic anhydrase preincubated for 15 mins by stopped-flow CO2 hydration assay; parameters: species or system Nakaseomyces glabratus
[7] = Inhibition of Porphyromonas gingivalis gamma-carbonic anhydrase preincubated for 15 mins by stopped-flow CO2 hydration assay
[8] = Inhibition of Plasmodium falciparum eta-carbonic anhydrase preincubated for 15 mins by stopped-flow CO2 hydration assay

Row | SMILES | Ki [1] | Ki [2] | Ki [3] | Ki [4] | Ki [5] | Ki [6] | Ki [7] | Ki [8]
1 | NS(=O)(=O)c1ccc(C(=O)NCCNC(=O)CCN(CCNC(=O)CCN(CCC(=O)NCCN(CCC(=O)NCCNC(=O)c2ccc(S(N)(=O)=O)cc2)CCC(=O)NCCNC(=O)c2ccc(S(N)(=O)=O)cc2)CCN(CCC(=O)NCCN(CCC(=O)NCCNC(=O)c2ccc(S(N)(=O)=O)cc2)CCC(=O)NCCNC(=O)c2ccc(S(N)(=O)=O)cc2)CCC(=O)NCCN(CCC(=O)NCCNC(=O)c2ccc(S(N)(=O)=O)cc2)CCC(=O)NCCNC(=O)c2ccc(S(N)(=O)=O)cc2)CCC(=O)NCCNC(=O)c2ccc(S(N)(=O)=O)cc2)cc1 | 95.4 nM | 8.1 nM | 85.6 nM | 77 nM | 83.6 nM | 342 nM | 563 nM | 58.6 nM
2 | NS(=O)(=O)c1ccc(C(=O)NCCNC(=O)CCN(CCC(=O)NCCNC(=O)c2ccc(S(N)(=O)=O)cc2)CCN(CCC(=O)NCCNC(=O)c2ccc(S(N)(=O)=O)cc2)CCC(=O)NCCNC(=O)c2ccc(S(N)(=O)=O)cc2)cc1 | 17.7 nM | 47.2 nM | 75.4 nM | 84.9 nM | 24 nM | 427 nM | 405 nM | 69.7 nM
